Assay results from publication PMC6368403, “Identification of a bilirubin receptor that may mediate a component of cholestatic itch” (eLife, 2019).
Where “and” joins values, the source holds several entries; their conditions need not be identical. Equal values may be shown once. Values belong to the compound of their own block, whether it stands above or below them. Square brackets hold non-standard residues; d marks the D form. Peptide text beside a SMILES is read from it. * marks the point of attachment. Boc = CC(C)(C)OC(=O)*; OBn = c1ccc(CO*)cc1; For = O=C*

Tests used:
[1] = test system: mice; experiment: Plasma injection assay: scratching bouts after injection of mouse or human plasma; assay type: in vivo; conditions: plasma treated with FeCl3 (vs NT), one value per animal
From the text: Plasma from patients suffering from hyperbilirubinemia, specifically cholestasis, was isolated under a protocol approved by the Institutional Review Board at the Johns Hopkins University School of Medicine (Study number: IRB00154650). […] Both cholestatic and control plasma were isolated under protocols approved by the Institutional Review Board at the Johns Hopkins University School of Medicine (Cholestasis Study number: IRB00154650; Control study number: NA_00013177, the Johns Hopkins Department of Dermatology Patient Database and Tissue Bank). Whole blood was collected into PAXgene tubes (PreAnalytiX 761115) and centrifuged for 5 min at 300 g. Plasma was then collected, aliquoted, and stored at −20°C until experimentation. […] All applicable behavioral tests were performed and analysed with the experimenter blind to genotype. […] There were no significant differences in itch between male and female mice. […] On the day before the experiment, animals were placed in the test chamber for 30 min before being subjected to a series of three mock injections with 5 min break periods in between. On the day of the experiment, animals were first allowed to acclimatize to the test chamber for 10 min before injection. […] A bout of scratching was defined as a continuous scratching movement with either hindpaw directed at the area of the injection site. In the cheek injection model, a wipe was defined as a single forepaw stroking the site of the injection. Use of both forepaws on the face or cheek was considered as grooming behavior. […] For H1R block, 30 mg/kg of cetirizine HCl (pH 7.4) was given intraperitoneally thirty minutes prior to injection of bilirubin. Licking behavior was quantified in seconds and identified as the licking of the toes or footpad of the hind paw site of injection that was neither preceded nor followed by licking of any other portion of the body.

[2] = mouse, in vivo, 1 mg/kg
[3] = cited from earlier work
[4] = target: MRGPRA1, GFP-tagged (mouse) (UniProt Q91WW5)
MRGPRA1, GFP-tagged (mouse), sequence (Q91WW5 whole entry): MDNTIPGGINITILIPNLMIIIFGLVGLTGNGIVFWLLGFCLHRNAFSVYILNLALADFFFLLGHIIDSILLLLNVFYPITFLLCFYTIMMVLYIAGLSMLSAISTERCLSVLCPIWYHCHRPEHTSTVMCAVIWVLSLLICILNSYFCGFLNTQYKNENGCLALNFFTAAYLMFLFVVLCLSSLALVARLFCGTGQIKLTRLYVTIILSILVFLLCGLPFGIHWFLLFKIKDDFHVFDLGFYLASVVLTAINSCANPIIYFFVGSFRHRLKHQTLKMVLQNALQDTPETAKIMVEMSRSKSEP

Compound: [Cl][Fe]([Cl])[Cl] [FeCl3]
Scratching bouts after injection of plasma ([1]; NT values equal cholestasis WT c1 of sheet Fig 7 - CD): 75 and 132 and 54 and 111 and 173 and 58 and 34
Scratching bouts after injection of plasma ([1]; NT/FeCl3 pair, NT values equal cholestasis WT c7 of sheet Fig 7 - CD): 117 and 53 and 60 and 54 and 67
Scratching bouts after injection of plasma ([1]; NT/FeCl3 pair, plasma source not given): 45 and 53 and 51 and 41 and 34

Compound: CC(C)(C)OC(=O)N[C@@H](CCC(N)=O)C(=O)N[C@H](Cc1cn(C=O)c2ccccc12)C(=O)N[C@@H](Cc1ccccc1)C(=O)OCc1ccccc1 [QWF, BOC-GLN-D-(FORMYL)TRP-PHE-BENZYLESTER] (Boc-Gln-[dW](For)-Phe-OBn)
Plasma levels of total bilirubin, AST, ALT, ALP [2]: did not change plasma levels of total bilirubin, AST, ALT, or ALP
t1/2 in plasma [3]: 70 min

inhibition of the bilirubin-induced Ca2+ signal in MRGPRA1-expressing HEK cells (200 µM bilirubin kept in competition with varied doses of QWF) [4]: 2.9 µM
Compound: QWF (BOC-GLN-D-(FORMYL)TRP-PHE-BENZYLESTER) (peptide)
